The source made the active and inactive calls. No rule for the calls is given here.
Each molecule was assayed against Ubiquitin carboxyl-terminal hydrolase 10 (Homo sapiens) (UniProt Q14694) (assay: ubiquitin-specific protease 10 DUB inhibitors, concentration-effect, biochemical, verification of primary screen actives (AID 1645863;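 also: potency values describe inhibition of USP10 cleavage of a fluorogenic ubiquitin substrate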)). Conditions: USP10 deubiquitinase enzymatic assay.
Sequence of Ubiquitin carboxyl-terminal hydrolase 10 (Homo sapiens) (Q14694 whole entry, looked up): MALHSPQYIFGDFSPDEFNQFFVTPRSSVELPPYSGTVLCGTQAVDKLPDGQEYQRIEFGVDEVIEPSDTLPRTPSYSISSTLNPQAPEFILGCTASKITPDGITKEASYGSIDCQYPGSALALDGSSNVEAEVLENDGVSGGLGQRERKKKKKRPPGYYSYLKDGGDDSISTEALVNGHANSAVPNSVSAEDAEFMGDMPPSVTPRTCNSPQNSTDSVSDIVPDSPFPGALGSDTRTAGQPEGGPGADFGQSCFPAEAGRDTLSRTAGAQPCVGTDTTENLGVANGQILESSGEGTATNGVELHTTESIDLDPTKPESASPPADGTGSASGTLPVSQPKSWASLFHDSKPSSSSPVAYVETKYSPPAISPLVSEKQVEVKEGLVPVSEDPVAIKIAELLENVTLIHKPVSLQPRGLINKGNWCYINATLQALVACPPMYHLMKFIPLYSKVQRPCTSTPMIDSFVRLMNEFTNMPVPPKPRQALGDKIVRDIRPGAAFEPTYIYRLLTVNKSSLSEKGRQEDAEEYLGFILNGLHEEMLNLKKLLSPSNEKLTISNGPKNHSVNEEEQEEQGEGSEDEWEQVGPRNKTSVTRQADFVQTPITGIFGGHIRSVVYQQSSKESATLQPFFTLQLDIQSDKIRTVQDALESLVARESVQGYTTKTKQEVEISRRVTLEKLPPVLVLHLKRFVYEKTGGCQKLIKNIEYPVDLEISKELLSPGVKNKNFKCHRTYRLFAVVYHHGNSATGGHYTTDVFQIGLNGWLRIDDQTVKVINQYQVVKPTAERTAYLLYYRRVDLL

Structure (SMILES) | IC50
COc1cccc(NC(=O)c2oc3ccccc3c2NC(=O)COc2cccc(OC)c2)c1 | > 40 µM (inactive)
CCc1cccc(NC(=O)Cc2nnc3ccc(-c4nc(C)no4)cn23)c1 | > 40 µM (inactive)
Cc1cccc(NC(=O)CNC(=O)c2ccc(-c3noc(C4CCCC4)n3)cc2)c1C | > 40 µM (inactive)
Cc1nc2c(-c3ccc(Cl)cc3)c[nH]n2c(=O)c1Cc1ccccc1 | > 12.6 µM (inactive)
CCCCN1CC(C(=O)Nc2ccc(C(=O)Nc3ccc(C(N)=O)cc3)cc2)CC1=O (stereo not given) | > 40 µM (inactive)
CN1C(=O)COc2cc(-c3noc(C(=O)NCc4ccc(F)cc4)n3)ccc21 | 24.9 µM
O=C(Cn1c(=O)n(Cc2ccccc2)c(=O)c2ncccc21)NCc1ccccc1Cl | > 40 µM (inactive)
Cc1ccc2c(c1)c(=O)c(C(=O)c1ccccc1)cn2CC(=O)Nc1ccc2c(c1)OCCO2 | > 40 µM (inactive)
Cc1c(C(=O)NCc2cccc(Br)c2)oc2c1-c1[nH]ncc1CC2 | > 40 µM (inactive)
CCc1ccc(NC(=O)Cn2c(=O)n(Cc3ccccc3)c(=O)c3nn(CC)cc32)cc1 | > 40 µM (inactive)
COc1ccc([N+](=O)[O-])cc1NC(=O)COC(=O)c1ccc2[nH]c3c(c2c1)CCCC3 | 18.3 µM
CN1CC(c2ncn[nH]2)c2cc(C(=O)NCc3cccc(F)c3)ccc21 (stereo not given) | > 40 µM (inactive)
O=C(NC1CCCC1)C1CC(=O)N(c2cccc(-c3noc(-c4cccs4)n3)c2)C1 (stereo not given) | > 40 µM (inactive)
Cc1ccc(-c2nnc3ccc(SCC(=O)N4CCCc5ccccc54)nn23)cc1 | > 40 µM (inactive)
O=C(Nc1ccccc1)[C@@H]1[C@@H]2C(=O)N(c3ccc([N+](=O)[O-])cc3)C(=O)[C@@H]2[C@H]2c3ccccc3C=CN12 | > 40 µM (inactive)
CCc1cc(=O)oc2c(C)c(OCC(=O)NCc3ccccn3)ccc12 | > 40 µM (inactive)
COc1ccccc1/C=C/C(=O)NC(Cc1ccccc1)c1nc2ccccc2[nH]1 (stereo not given) | > 40 µM (inactive)
O=C(CC1C(=O)Nc2nc3ccccc3n21)Nc1cccc2ccccc12 (stereo not given) | 16.5 µM
Cc1cccc(-c2nnn3c2nc(NCC2CCCO2)c2ccccc23)c1 (stereo not given) | > 40 µM (inactive)
CSc1nc2ncn(CC(=O)Nc3ccc(Br)cc3)c(=O)c2s1 | > 40 µM (inactive)
N#Cc1cccnc1N1CCN(C(=O)Nc2cccc3ccccc23)CC1 | > 40 µM (inactive)
CS(=O)(=O)c1cccc(-c2nnc(NC(=O)c3ccc(Cc4ccccc4)cc3)o2)c1 | > 40 µM (inactive)
O=C(Nc1cc(S(=O)(=O)Nc2ccc(Cl)cc2)ccc1O)c1cc2c(s1)CCC2 | 10.3 µM

Structure (SMILES) | IC50
Cc1nn(-c2ccccc2)c2c1nc(CCC(=O)NC1CCCCC1)c(=O)n2C | > 40 µM (inactive)
O=C(c1cccnc1)N1CCCC(Cc2cc(-c3ncc[nH]3)ncn2)C1 (stereo not given) | > 40 µM (inactive)
O=C1CSC(c2ccc(F)cc2)c2c(n(C3CCCCCC3)[nH]c2=O)N1 (stereo not given) | 32.4 µM
COc1ccc(Cl)cc1NC(=O)Cn1c(=O)n(CCCCC(=O)NCCc2ccccc2)c(=O)c2ccccc21 | 13.4 µM
COc1ccc(-c2cc(C(=O)Nc3ccnn3Cc3ccccc3)no2)cc1 | > 40 µM (inactive)
CCC(=O)Nc1nc2cc(NC(=O)Nc3ccc(C)cc3)ccc2s1 | > 40 µM (inactive)
Cn1cc(C(=O)Nc2ccccc2)c2[nH]c(=O)n(Cc3ccccc3)c(=O)c21 | > 40 µM (inactive)
N#Cc1cn2c(nc1-c1ccc(Cl)cc1)nc1ccccc12 | 19.5 µM
Cc1nc2c(nnn2C[C@H]2CCCN2C(=O)c2ccc(F)cc2)c(=O)[nH]1 | > 40 µM (inactive)
Cc1cc(=O)n(CC(=O)Nc2ccc3c(c2)OCO3)c2c1c(-c1ccccc1)nn2-c1ccccc1 | > 40 µM (inactive)
CCC(=O)N1c2ccccc2NC2=C(C(=O)CC(c3ccccc3OCc3ccccc3)C2)C1c1ccccc1 (stereo not given) | 35.7 µM
N#Cc1ccc(NC(=O)Nc2cccn(Cc3ccccc3F)c2=O)cc1 | > 40 µM (inactive)
O=C(Cn1ncc2c(=O)oc3ccccc3c21)NCc1ccc2c(c1)OCO2 | > 40 µM (inactive)
CC1OC2CC(O)C1(O)C1=C2C(O)=C(C(N)=O)C(=N)C1=O (stereo not given) | 7.46 µM
O=C(c1cscn1)N1CCC2(CC1)CC1(CO2)Nc2ccccc2-n2cccc21 (stereo not given) | > 40 µM (inactive)
CN(C)c1ccc(CNC(=O)c2nnc(C(=O)Nc3ccccc3)s2)cc1 | > 40 µM (inactive)
Cc1cccc(N2C(=O)/C(=C\c3ccc4c(c3)OCCO4)c3ccccc3C2=O)c1 | > 40 µM (inactive)
Cc1ccc2[nH]c3c(=O)n(Cc4ccc(N(C)C)cc4)cnc3c2c1 | 19.5 µM
Cc1ccc(Cn2cc(-c3noc(C(=O)Nc4cc(F)ccc4F)n3)nn2)cc1 | 26.8 µM
Cn1c(=O)n([C@@H](Cc2ccccc2)C(=O)N[C@@H](C(=O)O)c2ccc(O)cc2)c(=O)c2ccccc21 | > 40 µM (inactive)
OC1CCCN(c2ncc(-c3cnccn3)c(-c3cccs3)n2)C1 (stereo not given) | > 40 µM (inactive)
Cc1[nH]nc(NC(=O)C2COc3ccccc3O2)c1-c1ccccc1 (stereo not given) | > 40 µM (inactive)
Cc1cccc(C)c1NC(=O)Cn1c(=O)n(CCCCC(=O)NCc2ccc3c(c2)OCO3)c(=O)c2ccccc21 | 22.3 µM

Structure (SMILES) | IC50
COc1ccc(C(=O)Nc2nc(-c3ccc4c(c3)NC(=O)CO4)c(C)s2)cc1OC | > 40 µM (inactive)
O=C(CCCn1c(=O)c2ccccc2n(CC(=O)NCc2ccccc2Cl)c1=O)NCc1ccc2c(c1)OCO2 | 8.88 µM
O[C@H]1[C@H](NCc2cccc(C(F)(F)F)c2)[C@@H](c2cncnc2)C[C@H]1O | > 40 µM (inactive)
CC[C@@H](C(=O)[C@@H](C)[C@@H](O)[C@H](C)CCc1ccc(C)c(O)c1C(=O)O)[C@@H]1O[C@](CC)([C@H]2CC[C@](O)(CC)[C@H](C)O2)C[C@@H]1C | 12.4 µM
O=C(Cn1c(=O)n(CCC(=O)N2CCc3ccccc3C2)c(=O)c2ccccc21)NCc1ccccc1Cl | > 40 µM (inactive)
Cc1cc(C)cc(NC(=O)C2CC(=O)Nc3nc4ccccc4n32)c1 (stereo not given) | > 40 µM (inactive)
c1ccc2sc(-c3csc(-c4ccc5c(c4)OCCO5)n3)nc2c1 | > 40 µM (inactive)
c1cncc(-c2cnc3sc(NCc4ccc5c(c4)OCO5)nn23)c1 | > 40 µM (inactive)
O=c1cc(-c2ccc(O)c(O)c2)oc2cc(O[C@@H]3O[C@H](CO)[C@@H](O)[C@H](O)[C@H]3O)cc(O)c12 | 1.75 µM
CC(=O)Nc1ccc(NC(=O)c2ccc3c(c2)CC(c2ccccc2)OC3=O)cc1 (stereo not given) | 14.6 µM
CCOC(=O)C1CCN(C(=O)c2ccc3c(c2)NC(=O)C2CCCN32)CC1 (stereo not given) | > 40 µM (inactive)
O=C1C(=O)N(c2nc3ccc(F)cc3s2)C(c2ccc(F)cc2)/C1=C(\O)c1ccc(F)cc1 (stereo not given) | 11.5 µM
CC(C)n1cc(CN2CCC(C(=O)Nc3cccc(-c4cccc(Cl)c4)c3)CC2)cn1 | > 40 µM (inactive)
O=C1CC(c2ccccc2)n2ncnc2N1 (stereo not given) | > 40 µM (inactive)
COc1ccccc1N(CC(=O)N1c2ccccc2CC1C)S(=O)(=O)c1ccc(F)cc1 (stereo not given) | > 40 µM (inactive)
CCCCCCCCCC(CCCCCCCCCC(=O)O)O[C@H]1O[C@@H](COC(C)=O)[C@H](O)[C@@H](O)[C@H]1OC(=O)CC(=O)O (stereo not given in full) | 29.4 µM
O=C(NC1CCCCCC1)c1cccc(S(=O)(=O)Nc2cc(C(F)(F)F)ccc2Cl)c1 | 21.1 µM
O=C(CC1C(=O)N(C2CCCC2)c2nc3ccccc3n21)Nc1ccccc1 (stereo not given) | > 40 µM (inactive)
O=c1oc2c3c(c(Cl)cc2c2c1CCCC2)OCN(Cc1ccccc1)C3 | > 40 µM (inactive)
CCC(=O)Nc1nc2cc(NC(=O)Nc3cccc(C)c3)ccc2s1 | 18.8 µM
Oc1cccc2c(-c3ccc(O)c4c(O)cccc34)ccc(O)c12 | > 40 µM (inactive)
Cn1c(=O)c(C(=O)Nc2ccc(Br)cc2)nc2ccccc21 | 26.5 µM
CN(C)[C@@H]1C(=O)C(C(N)=O)=C(O)[C@@]2(O)C(=O)C3=C(O)c4c(O)cccc4[C@@](C)(O)C3[C@H](O)[C@@H]12 (stereo not given in full) | 1.1 µM

Structure (SMILES) | IC50
CCOc1ccc2c(c1)c(=O)c(C(=O)c1ccc(F)cc1)cn2CC(=O)Nc1ccccc1 | > 40 µM (inactive)
Cc1cc(=O)[nH]c(SCC(=O)c2cc(C)n(CCC3=CCCCC3)c2C)c1C#N | > 40 µM (inactive)
COC(=O)c1ccc2c(=O)n(CCCCCC(=O)NCCc3ccc(S(N)(=O)=O)cc3)c(=O)[nH]c2c1 | 24.7 µM
Cc1cc(OCC(=O)Nc2ccccc2C(=O)Nc2ccccc2)ccc1Cl | 24.6 µM
COc1ccc(NC(=O)Cn2c(=O)n(CCCC(=O)NC3CCCC3)c(=O)c3cc(Cl)ccc32)c(OC)c1 | 27.8 µM
CCn1c(CNC(=O)c2cccc(C)c2)nnc1SCC(=O)N1CCc2ccccc21 | > 40 µM (inactive)
O=C(CNS(=O)(=O)c1ccc(F)cc1)N1CCCC(c2nnc3ccccn23)C1 (stereo not given) | > 40 µM (inactive)
Cc1cccc(C)c1NC(=O)COc1ccccc1-c1nnc(-c2ccccc2)o1 | > 40 µM (inactive)
Cc1ccc(NC(=O)COc2ccccc2/C=C2/NC(=O)N(Cc3ccc(F)cc3)C2=O)cc1 | > 40 µM (inactive)
O=C(COC(=O)c1ccc(NS(=O)(=O)c2ccc(F)c(F)c2)cc1)Nc1ccc(OCc2ccccc2)cc1 | 20.9 µM
O=C(NC1CCCCC1)C(c1ccc(F)cc1)N(C(=O)C1COc2ccccc2O1)c1ccc2c(c1)OCO2 (stereo not given) | > 40 µM (inactive)
O=S1(=O)CCN(Cc2cccnc2)c2c(F)nc(N3CCOCC3)c(F)c21 | > 40 µM (inactive)
O=C(CSc1nc2c(cnn2-c2ccccc2)c(=O)[nH]1)Nc1ccc(Cl)cc1F | > 40 µM (inactive)
COc1ccc(Cl)cc1NC(=O)Cn1c(=O)n(CCCC(=O)NCc2ccc(C)cc2)c(=O)c2sccc21 | 31.1 µM
CCn1c(SCC(=O)c2c(N)n(CC(C)C)c(=O)n(C)c2=O)nnc1-c1ccccc1 | > 40 µM (inactive)
O=C(Nc1cccnc1)C1c2ccccc2C(=O)N(c2ccccc2)C12CCCCC2 (stereo not given) | > 40 µM (inactive)
CCCCNC(=O)CSc1nnc(-c2cc3ccccc3n2C)o1 | > 40 µM (inactive)
O=C(Nc1ccccc1Cc1ccccc1)c1nc2n(n1)-c1ccccc1S(=O)(=O)N2 | 25.3 µM
Cc1ccc(NC(=O)Nc2ccccc2OCc2cc(=O)n3cc(C)ccc3n2)cc1 | > 40 µM (inactive)
COc1ccc(C2(c3nnc(C(C)Oc4ccc(F)cc4)o3)CCOCC2)cc1 (stereo not given) | > 40 µM (inactive)
CCCCCCCCCCCC1=C(O)C(=O)C=C(O)C1=O | 2.44 µM

Reference: PubChem BioAssay AID1645863 (Buhrlage Lab, Dana-Farber Cancer Institute and Novartis …, 2021)
